According to patent US20260083126A1, “ANTIMICROBIAL COMPOSITIONS” (AHV International B.V., priority 2022, published 2026):
≈ marks a conversion by molar mass, not a printed value.

Legend:
Format in all cases: cell-based
[1] = tested on: plant pathogens; assay: Colony diameter on agar plates, all tested fungi (conclusion); details: conclusion of Example 7b
Method: In particular, the antimicrobial activity of bis(p-chlorophenyl) disulfide (AM2), bis(p-fluorophenyl) disulfide (AM3), bis(p-chlorophenyl) thiosulfonate (AM6) and diisopropyl thiosulfonate (AM8) of the invention is tested against pathogenic fungi selected from Pythium aphanidermatum, Phytophthora cinnamiomi, Fusarium oxysporum, Sclerotinia sclerotiorum, Rhizoctonia solani and Botrytis cinerea.
Experimental design. The effects of mentioned compounds on growth of the fungi were tested on agar plates with various dilutions of the compounds. The fungus was inoculated in the middle of the agar plate. At various time intervals the diameter of the colony was measured.
The fungi were pregrown on appropriate agar media, for example potato dextrose agar or malt extract agar at 24 C. After 3, 7, 10 and 14 days of incubation at 24 C, the diameter of the fungal colonies were measured on the agar plates. Since the agar plates have a diameter of 8 cm, this was the maximum colony size.
Agar media were prepared with various dilutions of bis(p-chlorophenyl) disulfide (AM2), bis(p-fluorophenyl) disulfide (AM3), bis(p-chlorophenyl) thiosulfonate (AM6) and diisopropyl thiosulfonate (AM8).
The test compounds were added to the agar media when the liquid agar medium was still hand-warm to prevent heat-dependent decomposition of the compounds. 50-fold concentrated stock solutions of the antimicrobial compounds of each dilution were prepared in 50% tween-80 and 50% DMSO (in this way the concentrations DMSO and tween 80 were the same in all agar plates). The following concentrations of the antimicrobial compounds were used for each strain in agar plates: 1.0 mM, 0.50 mM, 0.25 mM, 0.125 mM and 0.063 mM in the corresponding medium as indicated in table 12. Each concentration was tested in 4-fold in 8 cm diameter petridishes and each dish contained 11 ml agar medium.
Hereafter, the plates were inoculated in the middle of the dish. Incubation took place at 24 C. Colony diameters were measured at t=3, 7, 10 and 14 days after inoculation. Since the diameter of the petri dishes are 8 cm this diameter was the maximal diameter that was measured.

[2] = tested on: Micrococcus luteus ATCC 4698; assay: MIC assay; details: Example 2a, n = 3, ATCC 4698; for MIC50 / MIC90: Micrococcus luteus, ATCC4698
Method: (§1) The exact weighed amount was noted and the volume of solvent to reach a 80 mM dilution calculated. Half of the volume was added first, by adding Tween 80 and let stand for 5 minutes. In a second step, the other half of the volume DMSO was added and resuspended to help the dilution process. The closed tube was inverted 5-10 times and then vortexed very thoroughly for at least 30 seconds. If after this procedure crystals were still visible, the tube was placed in a shaker at 37° C. at 150 rpm for at least 30 minutes (it is indicated if the dissolution period was longer than 2 h). […] In case of Bis(4-Chlorophenyl) thiosulfonate, a lower concentrated stock solution of 2 mM needed to be prepared. For that, the required amount of compound was weighed in and 2% v/v Tween80 and 2% v/v DMSO of the end volume of the stock solution was added to the substance. This mix was heated in a water bath set to 40° C. and occasionally shaken. When the whole amount of the substance reached dissolution, the volume was filled up with growth medium until the end volume. This 2 mM stock solution of Bis(4-Chlorophenyl) thiosulfonate was used in the MIC plate and diluted two-fold, resulting in a testing range of Bis(4-Chlorophenyl) thiosulfonate from 1 mM to 0.002 mM.
The microorganisms as indicated in Table 4 were used to inoculate a tryptic soy agar (TSA) plate and incubated overnight at 37° C. After incubation 3-5 well-isolated colonies with the same morphology were selected from the TSA plate and resuspended in 2 mL 0.9% saline solution with 3-6 glass beads and vortexed. The optical density at 600 nm (OD600) of the bacterial suspension was measured with a spectrophotometer (Evolution™ 201/220 UV-Visible Spectrophotometer, Thermo Fisher Scientific) and diluted to an OD600 of 0.0008, which resembles 10^6 CFU/mL.
The MIC assay was performed in a flat-bottom 96-microtiter plate. 50 μL of MHB-II was added into columns 2-11, and 100 μL to column 12 for sterility control. 100 μL of the 8 mM test compound solution (method 1) was added to column 1. A two-fold dilution series of the solution in MHB-II was achieved by resuspending 50 μL of the 8 mM solution from column 1 to column 2. This step was repeated until column 10. The respective concentration of Tween 80 and DMSO in column 1 was 2.5%, which is two-fold diluted throughout the plate. 50 μL of the bacterial suspension was added to column 1-11. The microtiter plates were sealed with adhesive polyethylene film for sealing microplates (Diversified Biotech) and incubated for 24 h at 37° C. After incubation the OD was measured at 600 nm with the Varioskan (Thermo Fisher Scientific). The minimal concentration which causes reduction of final OD600 of the bacterial culture by 50% (MIC50) and by 90% (MIC90) was calculated after normalization of the obtained OD values to the growth control in column 11. This assay was repeated three times in three independent experiments.

[3] = tested on: Pseudomonas aeruginosa ATCC 27853 biofilm; assay: MBIC assay (crystal violet); details: 48 h at 37° C., absorbance 540 nm
Method: as §1
Frozen aliquots of Staphylococcus epidermis ATCC 35984 and Pseudomonas aeruginosa ATCC 27853 were used to inoculate a tryptic soy agar (TSA) plate and were incubated overnight at 37° C. After incubation 3-5 well-isolated colonies with the same morphology were selected from the TSA plate and resuspended in 2 ml 0.9% saline solution with 3-6 glass beads and vortexed. The optical density of the bacterial suspension was measured at 600 nm (OD600) with a spectrophotometer (Evolution™ 201/220 UV-Visible Spectrophotometer, Thermo Fisher Scientific) and diluted to an OD600 of 0.2. The MBIC assay was performed in a 96-microtiter plate. […] The solution was resuspended and transferred to a flat-bottom 96-well plate and the absorbance measured at 540 nm with the spectrophotometer. […]

| MIC50 Micrococcus luteus (+) [2] [µM] | MIC90 Micrococcus luteus (+) [2] [µM] | SMILES | growth of plant pathogens [1] | MIC50 [2] [µM] | MIC90 [2] [µM] | P. aeruginosa MBIC90 [3] [mM] |
| --- | --- | --- | --- | --- | --- | --- |
| – | – | Clc1ccc(SSc2ccc(Cl)cc2)cc1 [Bis (4-chlorophenyl) disulfide, Bis(4-chlorophenyl) disulfide] | clearly inhibited | 50 (≈ 14.4 µg/mL) | 250 (≈ 71.8 µg/mL) | >4 |
| – | – | Fc1ccc(SSc2ccc(F)cc2)cc1 [Bis (4-fluorophenyl) disulfide, Bis(4-fluorophenyl) disulfide] | clearly inhibited | 750 (≈ 191 µg/mL) | 2000 (≈ 509 µg/mL) | – |
| 2000 (≈ 541 µg/mL) | 3330 (≈ 900 µg/mL) | [O-][S+](Sc1ccc(F)cc1)c1ccc(F)cc1 (centres unmarked) [Bis (4-fluorophenyl) thiosulfinate, Bis(4-fluorophenyl) thiosulfinate] | – | – | – | – |
| 1500 | 2000 | O=S(=O)(Sc1ccc(F)cc1)c1ccc(F)cc1 [Bis (4-fluorophenyl) thiosulfonate, Bis(4-fluorophenyl) thiosulfonate] | – | – | – | – |
| – | – | CC(C)SS(=O)(=O)C(C)C [Di-isopropyl thiosulfonate] | clearly inhibited | – | – | – |
| – | – | CCCSSCCC [Di-n-propyl disulfide, reference compound] | – | – | – | >4 |
| – | – | CCCSS(=O)(=O)CCC [Di-n-propyl thiosulfonate, reference compound] | – | – | – | 0.5 |

| SMILES | MIC50 Micrococcus luteus (+) [2] [µM] | MIC90 Micrococcus luteus (+) [2] [µM] | growth of plant pathogens [1] | MIC50 [2] [µM] | MIC90 [2] [µM] | P. aeruginosa MBIC90 [3] [mM] |
| --- | --- | --- | --- | --- | --- | --- |
| O=S(=O)(Sc1ccc(Cl)cc1)c1ccc(Cl)cc1 [Bis (4-chlorophenyl) thiosulfonate, Bis(4-chlorophenyl) thiosulfonate] | 210 | 750 | clearly inhibited | – | – | – |
